Measurements taken from the NIST ThermoML archive (doi:10.1021/je049776w).

Assay: xn = mol fraction of the nth substance listed
Details: 101.3 kPa, Liquid

Cc1ccc(C)cc1 [1,4-dimethylbenzene] + CCCCCCC
Details | mass density, 323.15 K [kg/m3] | mass density, 333.15 K [kg/m3] | mass density, 343.15 K [kg/m3] | viscosity, 323.15 K [mPa·s] | viscosity, 333.15 K [mPa·s] | viscosity, 343.15 K [mPa·s]
x1 = 0.0948 | 672.73 | 663.88 | 654.83 | 0.3136 | 0.2848 | 0.2612
x1 = 0.1911 | 687.79 | 678.95 | 669.89 | 0.3211 | 0.2922 | 0.2658
x1 = 0.288 | 703.38 | 694.52 | 685.48 | 0.3304 | 0.2997 | 0.273
x1 = 0.3865 | 719.83 | 710.98 | 701.94 | 0.3408 | 0.3097 | 0.2818
x1 = 0.4856 | 736.82 | 727.97 | 718.94 | 0.3529 | 0.3201 | 0.2915
x1 = 0.5861 | 754.77 | 745.92 | 736.91 | 0.3683 | 0.3345 | 0.303
x1 = 0.6877 | 773.41 | 764.57 | 755.57 | 0.3835 | 0.3537 | 0.3166
x1 = 0.7906 | 792.97 | 784.15 | 775.17 | 0.4041 | 0.3712 | 0.3317
x1 = 0.8949 | 813.45 | 804.64 | 795.69 | 0.4285 | 0.3973 | 0.3498
x1 = 1 | 834.9 | 826.09 | 817.17 | 0.4599 | 0.4298 | 0.3783
